Data published in patent US9663569B2, “Use of blocking agents of bone morphogenic protein (BMP) signalling for the treatment of neuroinflammatory and neurodegenerative diseases” (THE MEDICAL RESEARCH, INFRASTRUCTURE, AND HEALTH SERVICES …, priority 2012, dated 2017).

Test system: SJL female mice with induced RR-EAE
Assay: RR-EAE clinical score in SJL mice after systemic treatment
Format: in vivo
Description: The SJL/EAE mice model was chosen based on its relapsing and remitting (RR) pattern, which resembles the pattern of RR-multiple sclerosis in humans. RR-EAE was induced in SJL female mice (8 weeks old, Harlan Laboratories, Ltd. Israel) by subcutaneous immunization (designated day 0) with proteolipid protein peptide (PLP139-151, BioSight Ltd.) at a concentration of 100 μg/mouse.
In both models the peptides used for EAE induction were emulsified in an equal volume of Complete Freund's Adjuvant (CFA, DIFCO), containing 500 μg Mycobacterium tuberculosis H37RA (MT, DIFCO). In addition, the mice received two consecutive intraperitoneal injections of 300 ng Pertussis toxin (PTX, Sigma-Aldrich) in 0.2 ml PBS. The first injection was given at day 0 and a second injection was given 48 h afterwards.
Day 9 post induction of EAE was chosen for administration of anti-BMP neutralizing antibodies, in order to affect both the onset and the severity of EAE. […], emulsified in 200 μl PBS: anti-human BMP-2/4 (an antibody which recognizes both BMP-2 and BMP-4), anti-human BMP-5, and anti-human BMP-7 mAbs (all anti-BMP neutralizing monoclonal antibodies were obtained from R&D systems). Commercial anti-human BMPs were used based on the high homology (>95%) between human and mouse BMPs. […] Since the blood brain barrier (BBB) is disrupted in the EAE mice by the presence of pertussis toxin, the injected antibodies are present systemically in the blood stream but are also transmitted to the CNS through the disrupted BBB.
Mice treated with corresponding isotype controls (IgG1 and IgG2β, termed herein “IC”) (R&D systems) as well as mice treated with the vehicle PBS alone (termed herein “vehicle”) were used as negative controls (n=12 in each group).
Mice were monitored for symptoms of RR-EAE and were scored as follows: “0” for no disease; “1”, tail paralysis; “2”, hind limb weakness; “3”, hind limb paralysis; “4”, hind limb and forelimb paralysis; “5”, moribund.
[…] Animals were daily monitored for EAE symptoms and scored as described above. […]

[1] = 10 mg/kg i.p. every 12 hr for 5 days from day 9 post immunization

Structure (SMILES): c1cc(-c2cnn3cc(-c4ccc(OCCN5CCCCC5)cc4)cnc23)ccn1 [dorsomorphin, 6-[4-(2-Piperidin-1-yl-ethoxy)phenyl]-3-pyridin-4-yl-pyrazolo[1,5-a]pyrimidine]
- form of the disease during treatment [1]: very mild form of the disease
- onset of the first relapse delayed to day [1]: 16 days
- mice exhibiting the severe forms of the disease (score 2-5) (10 mg/kg i.p., day 9 to day 13, until day 16 post immunization): no mice
